Laboratory results: US4642332A, “Effective hormonal peptides: D-3-Pal^6 -LHRH” (The Board of Regents, The University of Texas System, priority 1985, dated 1987)

Experiments:
[1] = test system: 21 day old female rats; assay: In vivo assay in rats for release of LH and FSH; design: species or system rat; conditions: for Serum FSH ng/ml SEM / Serum LH ng/ml SEM: Table IX, blood sample at ±60 minutes; for Serum FSH ng/ml SEM / Serum LH ng/ml SEM / FSH ng/ml Serum ± SEM at +120 min / LH ng/ml Serum ± SEM at +120 min: mean of 6; for FSH ng/ml Serum ± SEM at +120 min / LH ng/ml Serum ± SEM at +120 min: Table X; for +2 hrs LH ± SEM ng/ml serum / FSH ± SEM ng/ml serum (+2 hrs) / +3 hrs LH ± SEM ng/ml serum / FSH ± SEM ng/ml serum (+3 hrs): Table XI, 150 ng sc, mean 5-6
Method: In vivo rat assay performed by a modification of the method of Bowers, C. Y. et al. Endocrinology, 106, 674 (1980). 21 day old female rats were injected sc with saline or peptide. Blood samples for the RIAs of LH and FSH were collected at +15, +60, +120, or +180 minutes. (Tables VI-XI).

[2] = test system: pituitary cells from 21 day old rats; assay: In vitro pituitary incubate assay (release of LH and FSH); type: cell-based, rat; conditions: mean of 9
Method: The data in Tables IV and V are from the in vitro assay of the peptides with the pituitary incubate. This assay measures the release of LH and FSH in an in vitro system with pituitary cells from 21 day old rats. See, Bowers, C. Y. et al. on the inhibitory effects of leutinizing hormone releasing hormone analogs. Endocrinology, 106: 674 (1980).
The abbreviations are as follows: sc-subcutaneous, SEM-standard error of the mean; NS-not significant; ng-nanogram, and ml-milliliter. The p value represents the population coefficient .rho.(rho) which signifies whether a sample coefficient is significant or a chance deviation from zero.

[3] = Table IV, dosage 0.03 ng/ml medium
[4] = Table IV, dosage 0.1 ng/ml medium
[5] = Table IV, dosage 0.3 ng/ml medium
[6] = Table IV, dosage 1.0 ng/ml medium
[7] = Table V, dosage .03 ng/ml medium
[8] = Table V, dosage .10 ng/ml medium
[9] = Table V, dosage .30 ng/ml medium
[10] = Table VI, 15 ng/rat sc, mean of 9
[11] = Table VI, 50 ng/rat sc, mean of 9
[12] = Table VI, 150 ng/rat sc, mean of 9
[13] = Table VIII first section (time not given), 15 ng/rat sc, mean of 5-6
[14] = Table VIII first section (time not given), 50 ng/rat sc, mean of 5-6
[15] = Table VIII first section (time not given), 150 ng/rat sc, mean of 5-6
[16] = Table VIII, ±60 min after injection, 150 ng/rat sc, mean of 5-6

CCNC(=O)[C@@H]1CCCN1C(=O)[C@H](CCCNC(=N)N)NC(=O)[C@H](CC(C)C)NC(=O)[C@@H](Cc1cccnc1)NC(=O)[C@H](Cc1ccc(O)cc1)NC(=O)[C@H](CO)NC(=O)[C@H](Cc1c[nH]c2ccccc12)NC(=O)[C@H](Cc1c[nH]cn1)NC(=O)[C@@H]1CCC(=O)N1 [Peptide 21436, pyroGlu-His-Trp-Ser-Tyr-D-3-Pal-Leu-Arg-Pro-NHC2 H5]
Serum FSH ng/ml SEM ([1]; 50 ng/rat sc): 3471 ± 229 ng/mL | Serum LH ng/ml SEM ([1]; 50 ng/rat sc): 116 ± 20 ng/mL | Serum FSH ng/ml SEM ([1]; 150 ng/rat sc): 1458 ± 424 ng/mL | Serum LH ng/ml SEM ([1]; 150 ng/rat sc): 144 ± 37 ng/mL | FSH ng/ml Serum ± SEM at +120 min ([1]; 50 ng/rat sc): 4692 ± 393 ng/mL | LH ng/ml Serum ± SEM at +120 min ([1]; 50 ng/rat sc): 291 ± 11 ng/mL | FSH ng/ml Serum ± SEM at +120 min ([1]; 150 ng/rat sc): 4811 ± 782 ng/mL | LH ng/ml Serum ± SEM at +120 min ([1]; 150 ng/rat sc): 278 ± 14 ng/mL | +2 hrs LH ± SEM ng/ml serum [1]: 237 ± 52 ng/mL | FSH ± SEM ng/ml serum (+2 hrs) [1]: 2415 ± 361 ng/mL | +3 hrs LH ± SEM ng/ml serum [1]: 106 ± 13 ng/mL | FSH ± SEM ng/ml serum (+3 hrs) [1]: 2205 ± 298 ng/mL

CNC(=O)[C@@H]1CCCN1C(=O)[C@H](CCCNC(=N)N)NC(=O)[C@H](CC(C)C)NC(=O)[C@@H](Cc1cccnc1)NC(=O)[C@H](Cc1ccc(O)cc1)NC(=O)[C@H](CO)NC(=O)[C@H](Cc1c[nH]c2ccccc12)NC(=O)[C@H](Cc1c[nH]cn1)NC(=O)[C@@H]1CCC(=O)N1 [Peptide 21437, pryoGlu-His-Trp-Ser-Tyr-D-3-Pal-Leu-Arg-Pro-NHCH3]
Serum FSH ng/ml SEM ([1]; 50 ng/rat sc): 1707 ± 518 ng/mL | Serum LH ng/ml SEM ([1]; 50 ng/rat sc): 47 ± 8 ng/mL | Serum FSH ng/ml SEM ([1]; 150 ng/rat sc): 2799 ± 783 ng/mL | Serum LH ng/ml SEM ([1]; 150 ng/rat sc): 111 ± 26 ng/mL

LHRH: peptide hormone known as the leutinizing hormone releasing hormone, exists naturally in the hypothalamus
FSH released into medium (ng/ml) ± SEM [2, 3]: 638 ± 292 | LH ng/ml medium ± SEM [2, 3]: 52 ± 20 ng/mL | FSH released into medium (ng/ml) ± SEM [2, 4]: 266 ± 235 | LH ng/ml medium ± SEM [2, 4]: 214 ± 30 ng/mL | FSH released into medium (ng/ml) ± SEM [2, 5]: 4556 ± 752 | LH ng/ml medium ± SEM [2, 5]: 771 ± 162 ng/mL | FSH released into medium (ng/ml) ± SEM [2, 6]: 8063 ± 943 | LH ng/ml medium ± SEM [2, 6]: 1434 ± 156 ng/mL | FSH ng/ml medium ± SEM [2, 7]: 598 ± 137 ng/mL | LH ng/ml medium ± SEM [2, 7]: 33 ± 24 ng/mL | FSH ng/ml medium ± SEM [2, 8]: 794 ± 52 ng/mL | LH ng/ml medium ± SEM [2, 8]: 206 ± 42 ng/mL | FSH ng/ml medium ± SEM [2, 9]: 2709 ± 252 ng/mL | LH ng/ml medium ± SEM [2, 9]: 892 ± 92 ng/mL | Serum FSH ng/ml SEM ([1]; 50 ng/rat sc): 909 ± 118 ng/mL | Serum LH ng/ml SEM ([1]; 50 ng/rat sc): 5 ± 0.5 ng/mL | Serum FSH ng/ml SEM ([1]; 150 ng/rat sc): 1076 ± 185 ng/mL | Serum LH ng/ml SEM ([1]; 150 ng/rat sc): 17 ± 3 ng/mL | Serum FFSH ng/ml ± SEM [1, 10]: 475 ± 43 ng/mL | Serum LH ng/ml ± SEM [1, 10]: 1.3 ± 0.2 ng/mL | Serum FFSH ng/ml ± SEM [1, 11]: 572 ± 68 ng/mL | Serum LH ng/ml ± SEM [1, 11]: 3.2 ± 0.3 ng/mL | Serum FFSH ng/ml ± SEM [1, 12]: 839 ± 73 ng/mL | Serum LH ng/ml ± SEM [1, 12]: 12 ± 3 ng/mL | LH ng/ml Serum ± SEM ± 15 min ([1]; Table VII, dosage 100 mg/rat sc (so in the source), ± 15 min): 49 ± 10 ng/mL | LH ng/ml Serum ± SEM ± 60 min ([1]; Table VII, dosage 100 mg/rat sc (so in the source), ± 60 min): 5.5 ± 0.9 ng/mL | Serum FSH ng/ml ± SEM [1, 13]: 1147 ± 489 ng/mL | Serum LH ng/ml ± SEM [1, 13]: 21.0 ± 4.0 ng/mL | Serum FSH ng/ml ± SEM [1, 14]: 2228 ± 448 ng/mL | Serum LH ng/ml ± SEM [1, 14]: 53.9 ± 9.0 ng/mL | Serum FSH ng/ml ± SEM [1, 15]: 1536 ± 172 ng/mL | Serum LH ng/ml ± SEM [1, 15]: 62.0 ± 21.0 ng/mL | Serum FSH ng/ml ± SEM [1, 16]: 2448 ± 209 ng/mL | Serum LH ng/ml ± SEM [1, 16]: 39.0 ± 17 ng/mL | +2 hrs LH ± SEM ng/ml serum [1]: .18 ± 0.07 ng/mL | FSH ± SEM ng/ml serum (+2 hrs) [1]: 337 ± 20 ng/mL | +3 hrs LH ± SEM ng/ml serum [1]: 0.66 ± 0.46 ng/mL | FSH ± SEM ng/ml serum (+3 hrs) [1]: 487 ± 72 ng/mL | FSH released ([1]; dosage of 15 ng): 572 ± 68 ng | release of LH (in words) ([1]; dosage of 15 ng): inactive
